Tests used:
[1] = system: A549 cells (Kras G12S mutation); experiment: Cell proliferation inhibition experiment, 3D cell model, CellTiter-Glo (A549); format: cell-based, human; settings: A549, 2% FBS F-12K, 384-well sphere plate, cultured 5 days with compound
Experimental: (§1) NCI-H358 was a human non-small cell lung cancer cell line with Kras G12C mutation, cultured in 10% FBS RPMI-1640 medium; A549 was a human lung adenocarcinoma cell line with Kras G12S mutation, cultured in 10% FBS F-12K medium. The cells in the logarithmic growth phase was taken, digested with trypsin EDTA, collected and counted, and H358 was adjusted to 1.8E4 cells/ml using 2% FBS RPMI-1640 medium, and A549 was adjusted to 8.9E3 cells/ml using 2% FBS F-12K medium; 800 (45 μl) H358 or 400 (45 μl) A549 cells were seeded in a 384-well sphere plate respectively, cultured overnight to establish a 3D cell model. DMSO was used to prepare 1000× compound 3.16-fold gradient concentration stock solution, and 2% FBS medium was used to dilute 100-fold to 10× compound stock solution. On the second day after cell seeding, 5 μl 10× compound stock solution was added to each cell culture well, the final concentration was 1×, and DMSO content was 0.1%. DMSO was used as the experimental control (control) and 2% FBS medium as the blank control (blank). After the compound and cells were added and cultured for 5 days, 25 μl CellTiter-Glo working solution was added to each well, mixed at 400 rpm and incubated for 30 minutes. After standing 30 minutes at room temperature, 40 μl of the mixture was transfered to a 384-well plate with a non-transparent white bottom, the luminescence chemiluminescence value was read, and the cells proliferation inhibition rate IR (%)=(RLU control-RLU compound)/(RLU control-RLU blank)×100% was calculated, Prism 6 four-parameter method was used to fit the compound's gradient dilution concentration and the corresponding cell proliferation inhibition rate, and the IC50 value was calculated.

[2] = system: Kras G12C mutant NCI-H358 cells; experiment: Cell proliferation inhibition experiment, 3D cell model, CellTiter-Glo (H358); format: cell-based, human; settings: NCI-H358, 2% FBS RPMI-1640, 384-well sphere plate, cultured 5 days with compound
Experimental: as §1

IC50 [1] | IC50 [2] | IC50 ([1]; Homo sapiens, A549, 120 h) | IC50 ([2]; Homo sapiens, NCI-H358, 120 h) | Compound | also measured
> 1000 nM | 6 nM | – | – | C=CC(=O)N1CCN(c2nc(OC[C@@H]3CCCN3C)nc3c(OC4CC4)c(-c4c(C)ccc5[nH]ncc45)c(Cl)cc23)CC1 (single isomer, unassigned) [Compound Z7B] | –
> 1000 nM | 9 nM | – | – | C=CC(=O)N1CCN(c2nc(OC3CCN(C)CC3)nc3c(OC4CC4)c(-c4c(C)ccc5[nH]ncc45)c(Cl)cc23)CC1 (single isomer, unassigned) [Compound Z12A] | –
> 5000 nM | 390 nM | – | – | C=CC(=O)N1CCN(c2nc(OC3CCN(C)CC3)nc3c(OC4CC4)c(-c4c(C)ccc5[nH]ncc45)c(Cl)cc23)CC1 (single isomer, unassigned) [Compound Z12B] | –
> 1000 nM | 4 nM | – | – | C=CC(=O)N1CCN(c2nc(OC[C@@H]3CCCN3C)nc3c(OC4CC4)c(-c4c(C)ccc5[nH]ncc45)c(Cl)cc23)[C@@H](C)C1 (single isomer, unassigned) [Compound Z28B] | –
> 30000 nM | 12 nM | – | – | C=CC(=O)N1CCN(c2nc(O[C@@H]3CCN(C)C3)nc3c(OC4CC4)c(-c4c(C)ccc5[nH]ncc45)c(Cl)cc23)CC1 (single isomer, unassigned) [Compound Z39B] | –
> 30000 nM | 12 nM | – | – | C=CC(=O)N1CCN(c2nc(O[C@H]3CCN(C)C3)nc3c(OC4CC4)c(-c4c(C)ccc5[nH]ncc45)c(Cl)cc23)CC1 (single isomer, unassigned) [Compound Z40A] | –
– | – | > 10000 nM | 10 nM | C=CC(=O)N1CCN(c2nc(OC[C@@H]3CCCN3C)nc3c(OC4CC4)c(-c4c(C)ccc5[nH]ncc45)c(OC)cc23)[C@@H](C)C1 (single isomer, unassigned) [Compound Z48B] | –
– | – | > 10000 nM | 50 nM | C=CC(=O)N1CCN(c2nc(OC[C@@H]3CCCN3C)nc3c(OC4CC4)c(-c4c(C)ccc5[nH]ncc45)c(OC)cc23)C[C@@H]1CC#N (single isomer, unassigned) [Compound Z50A] | –
– | – | > 1000 nM | 126 nM | C=CC(=O)N1CCN(c2nc(OC3CCN(C)CC3)nc3c(OC4CCOCC4)c(-c4c(C)ccc5[nH]ncc45)c(Cl)cc23)CC1 [Compound Z2, 1-(4-(6-chloro-7-(5-methyl-1H-indazol-4-yl)-2-((1-methylpiperidin-4-yl)oxy)-8-((tetrahydro-2H-pyran-4-yl)oxy)quinazolin-4-yl)piperazin-1-yl)prop-2-en-1-one] | –
– | – | – | – | C=CC(=O)N1CCN(c2nc(OC3CCN(C)CC3)nc3c(OC4CCC4)c(-c4c(C)ccc5[nH]ncc45)c(Cl)cc23)CC1 [Compound Z3, 1-(4-(6-chloro-8-cyclobutoxy-7-(5-methyl-1H-indazol-4-yl)-2-((1-methylpiperidin-4-yl)oxy)quinazolin-4-yl)piperazin-1-yl)prop-2-en-1-one] | IC50 ([1]; Homo sapiens, 120 h): > 1000 nM; IC50 ([2]; Homo sapiens, 120 h): 60 nM
– | – | > 10000 nM | 311 nM | C=CC(=O)N1CCN(c2nc(OC[C@@H]3CCCN3C)nc3c(OC4CC(F)(F)C4)c(-c4c(C)ccc5[nH]ncc45)c(Cl)cc23)[C@@H](C)C1 [Compound Z5] | –

Compound | IC50 [1] | IC50 [2] | IC50 ([1]; Homo sapiens, A549, 120 h) | IC50 ([2]; Homo sapiens, NCI-H358, 120 h) | also measured
C=CC(=O)N1CCN(c2nc(OC3CCN(C)CC3)nc3c(OC4CC(F)(F)C4)c(-c4c(C)ccc5[nH]ncc45)c(Cl)cc23)CC1 [Compound Z1, 1-(4-(6-chloro-8-(3,3-difluorocyclobutoxy)-7-(5-methyl-1H-indazol-4-yl)-2-((1-methylpiperidin-4-yl)oxy)quinazolin-4-yl)piperazin-1-yl)prop-2-en-1-one] | – | – | > 1000 nM | 108 nM | –
C=CC(=O)N1CCN(c2nc(OC[C@@H]3CCCN3C)nc3c(OC4CC(F)(F)C4)c(-c4c(C)ccc5[nH]ncc45)c(Cl)cc23)CC1 [Compound Z4, 1-(4-(6-chloro-8-(3,3-difluorocyclobutoxy)-7-(5-methyl-1H-indazol-4-yl)-2-(((S)-1-methylpyrrolidin-2-yl)methoxy)quinazolin-4-yl)piperazin-1-yl)prop-2-en-1-one] | – | – | > 1000 nM | 136 nM | –

Source: patent US20220363681A1, “OXO SIX-MEMBERED CYCLOPYRIMIDINE COMPOUND, PREPARATION METHOD AND MEDICAL USE THEREOF” (GenFleet Therapeutics (Shanghai) Inc., priority 2019, published 2022)
